{"source": "patent US8501162B2", "about": "“Compositions and methods for the skin and hair” (The Boots Company PLC, priority 2007, dated 2013)", "assay": "ABEL antioxidant assay with peroxynitrite, raw materials and combinations of three raw materials in solvent", "format": "biochemical", "settings": "for ABEL-RAC contribution in combination: ABEL-RAC of pure ingredient x percentage of ingredient in combination", "source_text": "The ABEL antioxidant assay is an in vitro assay for testing the antioxidant capacity of a material. It utilises a photoprotein, which emits light when challenged with various free radical species, eg peroxynitrite, hydroxyl radicals or halogenated oxidants.\nIf a material is challenged with one or more of these free radical species, then any antioxidant in the sample will compete with the photoprotein. The result of this competition is a reduction in the amount of light emitted and sometimes, in addition, a delay in the time at which the maximum light emitted occurs. A light response curve can be produced for each sample tested, and EC50 and ABEL-RAC values calculated. The EC50 (effective concentration) is the concentration (normalised to g/L or mg/mL) of a material that reduces the light emitted by 50%. This reduction in light is a measure of the antioxidant capacity of the test material. The reciprocal of the EC50 values multiplied by 100 is referred to as the ABEL-RAC score.\nThe ABEL® antioxidant assay with peroxynitrite is the assay of choice to assess total antioxidant capacity because peroxynitrite attacks almost all compounds, including hydrophobic and hydrophilic antioxidants. Pro-oxidants are also identified with the peroxynitrite assay. Other ABEL® antioxidant assays use superoxide (produced as a single bolus in high concentration as well as enzymatically), hydroxyl radical and hyperchlorous acid (the halogenated oxidant assay). Pro-oxidants are not observed with the hydroxyl radical and halogenated oxidant assays. The hydroxyl radical assay is recommended when samples are water-soluble and the halogenated assay when the samples are soluble in organic solvent. This is because solvents such as ethanol, methanol, acetone and DMSO are good quenchers of hydroxyl radicals, and therefore the organic solvents contribute to the antioxidant effect shown by the sample. Organic solvents have little effect, however, on the halogenated oxidant assay.\n• 1. The antioxidant agents (referred to as raw materials (RM) hereafter) were first dissolved in an appropriate solvent as detailed in Table 1. • 2. Combinations of three raw materials were prepared for testing by combining one part each of three raw material dilutions, at the concentrations specified in Table 2. • 3. In Table 2 each combination is given a combination number and each combination number is further described as A, B or C, where the concentrations of the raw material dilutions used in B are ten times greater that A, and the concentrations used in C are ten times greater than B (one hundred times greater than A). • 4. The concentrations of raw materials provided in Table 2 are the final concentrations of those materials in the ABEL® antioxidant assay.\nRaw material combinations 1, 3, 4, 8 and 9 were assayed at three additional concentrations which are dilutions of concentration A (see Table 2). The details are contained in Table 3.", "data": [{"smiles": "COc1cc2c(cc1O)CCC(C)(C)O2", "note": "[RM10, dimethylmethoxy chromanol]", "values": [{"measurement": "ABEL-RAC contribution in combination", "setting": "Combination 1", "result": 35221}, {"measurement": "ABEL-RAC contribution in combination", "setting": "Combination 3", "result": 10031}, {"measurement": "ABEL-RAC contribution in combination", "setting": "Combination 4", "result": 9606}, {"measurement": "ABEL-RAC contribution in combination", "setting": "Combination 8", "result": 4832}, {"measurement": "Effect of solvent (ethanol rather than IMS) on ABEL peroxynitrite assay result", "setting": "diluted with IMS versus diluted with ethanol, FIG. 19", "result": "does not make an appreciable difference"}, {"measurement": "EC50 mg/mL of pure ingredient", "setting": "pure raw material, ABEL peroxynitrite assay", "result": 0.0018, "unit": "mg/mL"}, {"measurement": "ABEL-RAC peroxynitrite of pure ingredient", "setting": "pure raw material, ABEL-RAC = reciprocal of EC50 x 100", "result": 88053}]}]}
